{"source": "patent US20220331298A1", "about": "“TREATMENT OF FRAGILE X SYNDROME WITH IBUDILAST IN COMBINATION WITH METFORMIN, CANNBIDIOL, SERTRALINE OR QUERCETIN” (priority 2019, published 2022)", "format_in_all_cases": "in vivo", "key": {"Fmr1 KO2 mice [1]": {"tested_on": "Fmr1 KO2 mice", "assay": "Behavioral testing (all behavioural tests together)", "description": "(§1) Fmr1 knockout 2 (Fmr1 KO2) mice were generated by deletion of the promoter and first exon of Fmr1. The Fmr1 KO2 it is both, protein and mRNA null. In this study we used Fmr1 KO2 and wild-type (WT) littermates generated on a C57BL/6J background and repeatedly backcrossed onto a C57BL/6J background for more than eight generations.\n(§2) There were five treatment groups per compound in the study with 10 male mice used per treatment group (all at 8 weeks of age): Group 1: wild-type littermate mice treated with vehicle (WT-Veh), Group 2: Fmr1 KO2 mice treated with vehicle (KO-Veh), Group 3: Fmr1 KO2 mice treated with ibudilast (KO-ibudilast); Group 4: Fmr1 KO2 mice treated with compound A (KO-[compound A]); Group 5: Fmr1 KO2 mice treated with ibudilast and compound A (KO-ibu/[compound A].\nFor experiments, all mice were tested once in the same apparatus. Prior to testing, mice were placed in the apparatus for some minutes before the experiment. The apparatus was cleaned with moist and dry tissues before testing each mouse. The aim was to create a low but constant background mouse odor for all experimental subjects. Testers were blind to the genotype and treatment during all testing and data analysis. We assessed weight loss, fur loss, walking, eyes open, eye discharges and general behavior.\n(§3) Data were analyzed by one-way ANOVA with a Dunnett's multiple comparison post hoc test in which WT Vehicle group was used as reference and compared with all the other groups"}, "Fmr1 KO2 mice [2]": {"tested_on": "Fmr1 KO2 mice", "assay": "Fear conditioning", "description": "The Fmr1 KO2 it is both, protein and mRNA null. In this study we used Fmr1 KO2 and wild-type (WT) littermates generated on a C57BL/6J background and repeatedly backcrossed onto a C57BL/6J background for more than eight generations. There were five treatment groups per compound in the study with 10 male mice used per treatment group (all at 8 weeks of age): Group 1: wild-type littermate mice treated with vehicle (WT-Veh), Group 2: Fmr1 KO2 mice treated with vehicle (KO-Veh), Group 3: Fmr1 KO2 mice treated with ibudilast (KO-ibudilast); Group 4: Fmr1 KO2 mice treated with compound A (KO-[compound A]); Group 5: Fmr1 KO2 mice treated with ibudilast and compound A (KO-ibu/[compound A]. For experiments, all mice were tested once in the same apparatus. Prior to testing, mice were placed in the apparatus for some minutes before the experiment. The apparatus was cleaned with moist and dry tissues before testing each mouse. The aim was to create a low but constant background mouse odor for all experimental subjects. Testers were blind to the genotype and treatment during all testing and data analysis. We assessed weight loss, fur loss, walking, eyes open, eye discharges and general behavior. […] The dependent measure used in contextual fear conditioning was a freezing response following a pairing of an unconditioned stimulus (foot shock), with a conditioned stimulus, a particular context. […]"}, "Fmr1 KO2 mice [3]": {"tested_on": "Fmr1 KO2 mice", "assay": "Social interaction (three-chambered sociability task)", "description": "as §1, §2\n(§4) For experiments, all mice were tested once in the same apparatus. […] We assessed weight loss, fur loss, walking, eyes open, eye discharges and general behavior.\nIn the three-chambered sociability task, a subject mouse was evaluated for its exploration of a novel social stimulus (novel mouse). […] The time spent exploring the novel mice was scored as exploration ratio.\nas §3"}, "Fmr1 KO2 mice [4]": {"tested_on": "Fmr1 KO2 mice", "assay": "Open field (hyperactivity)", "description": "as §1, §2, §4\nThe open-field apparatus was used to test hyperactivity. […] The number of squares entered by the whole body (locomotor activity) was counted. The movement of the mouse around the field was recorded with a video tracking device for 3 min (version NT4.0, Viewpoint).\nas §3"}, "Fmr1 KO2 mice [5]": {"tested_on": "Fmr1 KO2 mice", "assay": "Nesting", "description": "The Fmr1 KO2 it is both, protein and mRNA null. In this study we used Fmr1 KO2 and wild-type (WT) littermates generated on a C57BL/6J background and repeatedly backcrossed onto a C57BL/6J background for more than eight generations. There were five treatment groups per compound in the study with 10 male mice used per treatment group (all at 8 weeks of age): Group 1: wild-type littermate mice treated with vehicle (WT-Veh), Group 2: Fmr1 KO2 mice treated with vehicle (KO-Veh), Group 3: Fmr1 KO2 mice treated with ibudilast (KO-ibudilast); Group 4: Fmr1 KO2 mice treated with compound A (KO-[compound A]); Group 5: Fmr1 KO2 mice treated with ibudilast and compound A (KO-ibu/[compound A]. For experiments, all mice were tested once in the same apparatus. Prior to testing, mice were placed in the apparatus for some minutes before the experiment. The apparatus was cleaned with moist and dry tissues before testing each mouse. The aim was to create a low but constant background mouse odor for all experimental subjects. Testers were blind to the genotype and treatment during all testing and data analysis. We assessed weight loss, fur loss, walking, eyes open, eye discharges and general behavior. […] Mice were placed individually into the nesting cages 1 hr. before the dark phase, and the results were assessed the next morning. Nest building was scored on a 5 point scale. […]"}}, "data": [{"compound": "C=C(C)[C@@H]1CCC(C)=C[C@H]1c1c(O)cc(CCCCC)cc1O", "note": "[cannabidiol]", "values": [{"measurement": "effect of the amount given alone in the behavioural tests", "setting": "Fmr1 KO2 mice [1]; cannabidiol alone 5 mg/kg, FIG. 5", "value": "ineffective"}]}, {"compound": "CC(C)C(=O)c1c(C(C)C)nn2ccccc12", "note": "[ibudilast, 2-methyl-1-(2-propan-2-ylpyrazolo[1,5-a]pyridin-3-yl)propan-1-one]", "values": [{"measurement": "fear conditioning rescue", "setting": "Fmr1 KO2 mice [2]; ibudilast 3 mg/kg, FIG. 1", "value": "partially rescued"}, {"measurement": "fear conditioning rescue", "setting": "Fmr1 KO2 mice [2]; ibudilast 12 mg/kg, FIG. 2", "value": "fully rescued"}, {"measurement": "effect of the amount given alone in the behavioural tests", "setting": "Fmr1 KO2 mice [1]; ibudilast alone 3 mg/kg", "value": "ineffective"}, {"measurement": "sociability rescue", "setting": "Fmr1 KO2 mice [3]; ibudilast 3 mg/kg, FIG. 1", "value": "inactive"}, {"measurement": "sociability rescue", "setting": "Fmr1 KO2 mice [3]; ibudilast 12 mg/kg, FIG. 2", "value": "fully rescued"}, {"measurement": "open field (hyperactivity) rescue", "setting": "Fmr1 KO2 mice [4]; ibudilast 3 mg/kg, FIG. 1", "value": "inactive"}, {"measurement": "open field (hyperactivity) rescue", "setting": "Fmr1 KO2 mice [4]; ibudilast 12 mg/kg, FIG. 2", "value": "fully rescued"}, {"measurement": "nesting rescue", "setting": "Fmr1 KO2 mice [5]; ibudilast 3 mg/kg, FIG. 1", "value": "inactive"}, {"measurement": "nesting rescue", "setting": "Fmr1 KO2 mice [5]; ibudilast 12 mg/kg, FIG. 2", "value": "fully rescued"}]}, {"compound": "CN(C)C(=N)N=C(N)N", "note": "[metformin]", "values": [{"measurement": "effect of the amount given alone in the behavioural tests", "setting": "Fmr1 KO2 mice [1]; metformin alone 25 mg/kg, FIG. 4", "value": "ineffective"}]}, {"compound": "O=c1c(O)c(-c2ccc(O)c(O)c2)oc2cc(O)cc(O)c12", "note": "[quercetin]", "values": [{"measurement": "effect of the amount given alone in the behavioural tests", "setting": "Fmr1 KO2 mice [1]; quercetin alone 5 mg/kg, FIG. 6", "value": "ineffective"}]}, {"compound": "CN[C@H]1CC[C@@H](c2ccc(Cl)c(Cl)c2)c2ccccc21", "note": "[sertraline]", "values": [{"measurement": "effect of the amount given alone in the behavioural tests", "setting": "Fmr1 KO2 mice [1]; sertraline alone 1 mg/kg, FIG. 3", "value": "ineffective"}]}]}
